Reference: patent US11530218B2, “Spiro compounds as inhibitors of KRAS” (Incyte Corporation, priority 2020, dated 2022)

Test system: KRAS G12C (MIA PaCa-2 cells)
Test: KRAS_G12C cellular pERK HTRF assay
Type: cell-based, human
Design: G12C_pERK (KRAS_G12C pERK assay IC50): scale not given here
Settings: Homo sapiens, MIA PaCa-2; cells incubated with compound 4 hours; read-out: G12C_pERK (KRAS_G12C pERK assay IC50)
Method: MIA PaCa-2 (KRAS G12C; ATCC® CRL-1420), A427 (KRAS G12D; ATCC® HTB53), HPAF-II (KRAS G12D; ATCC® CRL-1997) and NCI-H838 (KRAS WT; ATCC® CRL-5844) cells are purchased from ATCC and maintained in RPMI 1640 media supplemented with 10% FBS (Gibco/Life Technologies). The cells are plated at 5000 cells per well (8 uL) into Greiner 384-well low volume, flat-bottom, tissue culture treated white plates and incubated overnight at 37° C., 5% CO2. The next morning, test compound stock solutions are diluted in media at 3x the final concentration, and 4 uL are added to the cells. The plate is mixed by gentle rotation for 30 seconds (250 rpm) at room temperature. The cells are incubated with the KRAS G12C and G12D compounds for 4 hours or 2 hours respectively at 37° C., 5% CO2.
4 uL of 4× lysis buffer with blocking reagent (1:25) (Cisbio) are added to each well and plates are rotated gently (300 rpm) for 30 minutes at room temperature. 4 uL per well of Cisbio anti Phospho-ERK 1/2 d2 is mixed with anti Phospho-ERK 1/2 Cryptate (1:1) are added to each well, mixed by rotation and incubated overnight in the dark at room temperature. Plates are read on the Pherastar plate reader at 665 nm and 620 nm wavelengths. IC50 determination is performed by fitting the curve of inhibitor percent inhibition versus the log of the inhibitor concentration using the GraphPad Prism 7 software.

IC50 [µM]	Compound
1 to 5	C=CC(=O)N1CCC2(CC1)Nc1c(cnc3c(F)c(-c4c(O)cccc4F)c(Cl)cc13)NC2=O [Example 1, 1-Acryloyl-9′-chloro-7′-fluoro-8′-(2-fluoro-6-hydroxyphenyl)-1′,4′-dihydro-3′H-spiro[piperidine-4,2′-pyrazino[2,3-c]quinolin]-3′-one]

Same assay, conditions: cells incubated with compound 4 hours

G12C_pERK (KRAS_G12C pERK assay IC50)	Compound
††	C=CC(=O)N1CCC2(CC1)C(=O)N(C)c1c(OC[C@@H]3CCCN3C)nc3c(F)c(-c4cc(O)cc5ccccc45)c(Cl)cc3c12 (single isomer, unassigned) [Example 16a]

Target: KRAS G12D (Homo sapiens, UniProt P01116, G12D)
Sequence (P01116 1-188 isoform P01116-2 G12D): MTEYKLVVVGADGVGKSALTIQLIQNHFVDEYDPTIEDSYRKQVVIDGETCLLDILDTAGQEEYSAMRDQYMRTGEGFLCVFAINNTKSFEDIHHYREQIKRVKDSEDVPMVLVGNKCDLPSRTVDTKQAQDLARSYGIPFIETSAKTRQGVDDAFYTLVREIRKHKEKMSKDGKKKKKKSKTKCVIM
Test: KRAS G12D GDP-GTP exchange assay (bodipy-GDP/GppNHp, SOS1)
Type: biochemical
Settings: bodipy loaded KRAS G12D 2.5 nM, 4 hours incubation after GppNHp-SOS1; read-out: G12D_exchange (KRAS_G12D exchange assay IC50)
Method: The inhibitor potency of the exemplified compounds was determined in a fluorescence based guanine nucleotide exchange assay, which measures the exchange of bodipy-GDP (fluorescently labeled GDP) for GppNHp (Non-hydrolyzable GTP analog) to generate the active state of KRAS in the presence of SOS1 (guanine nucleotide exchange factor). Inhibitors were serially diluted in DMSO and a volume of 0.1 μL was transferred to the wells of a black low volume 384-well plate. 5 μL/well volume of bodipy-loaded KRAS G12C diluted to 5 nM in assay buffer (25 mM Hepes pH 7.5, 50 mM NaCl, 10 mM MgCl2 and 0.01% Brij-35) was added to the plate and pre-incubated with inhibitor for 2 hours at ambient temperature. Appropriate controls (enzyme with no inhibitor or with a G12C inhibitor (AMG-510)) were included on the plate. The exchange was initiated by the addition of a 5 μL/well volume containing 1 mM GppNHp and 300 nM SOS1 in assay buffer. The 10 μL/well reaction concentration of the bodipy-loaded KRAS G12C, GppNHp, and SOS1 were 2.5 nM, 500 uM, and 150 nM, respectively. The reaction plates were incubated at ambient temperature for 2 hours, a time estimated for complete GDP-GTP exchange in the absence of inhibitor. For the KRAS G12D and G12V mutants, similar guanine nucleotide exchange assays were used with 2.5 nM as final concentration for the bodipy loaded KRAS proteins and with 4 hours and 3 hours incubation after adding GppNHp-SOS1 mixture for G12D and G12V respectively. A cyclic peptide described to selectively bind G12D mutant (Sakamoto et al., BBRC 484.3 (2017), 605-611) or internal compounds with confirmed binding were used as positive controls in the assay plates. Fluorescence intensities were measured on a PheraStar plate reader instrument (BMG Labtech) with excitation at 485 nm and emission at 520 nm.
Either GraphPad prism or XLfit was used to analyze the data. The IC50 values were derived by fitting the data to a four parameter logistic equation producing a sigmoidal dose-response curve with a variable Hill coefficient. Prism equation: Y=Bottom+(Top−Bottom)/(1+10^((Log IC50−X)*Hill slope)); XLfit equation: Y=(A+((B−A)/(1+((X/C)^D)))) where X is the logarithm of inhibitor concentration and Y is the response.

IC50 [µM]	Compound
1 to 5	Cc1cc2c3c(c(N4CC(N(C)C)C4)nc2c(F)c1-c1cc(O)cc2ccccc12)NC(=O)C31CCCNC1 (single isomer, unassigned) [Example 19b, 4′-(3-(dimethylamino)azetidin-1-yl)-6′-fluoro-7′-(3-hydroxynaphthalen-1-yl)-8′-methylspiro[piperidine-3,1′-pyrrolo[2,3-c]quinolin]-2′(3′H)-one]
1 to 5	CN(C)C1CN(c2nc3c(F)c(-c4cc(O)cc5ccc(Cl)cc45)c(Cl)cc3c3c2NC(=O)C32CCCNC2)C1 (single isomer, unassigned) [Example 20b, 8′-chloro-7′-(7-chloro-3-hydroxynaphthalen-1-yl)-4′-(3-(dimethylamino)azetidin-1-yl)-6′-fluorospiro[piperidine-3,1′-pyrrolo[2,3-c]quinolin]-2′(3′H)-one]
1 to 5	CN(C)C1CN(c2nc3c(F)c(-c4cc(O)cc5ccccc45)c(Cl)cc3c3c2NC(=O)C32CC3CC2CN3)C1 (single isomer, unassigned) [Example 21b, 8′-chloro-4′-(3-(dimethylamino)azetidin-1-yl)-6′-fluoro-7′-(3-hydroxynaphthalen-1-yl)-5-azaspiro[bicyclo[2.2.1]heptane-2,1′-pyrrolo[2,3-c]quinolin]-2′(3′H)-one]
0.1 to 1	CN(C)C1CN(c2nc3c(F)c(-c4cc(O)cc5ccccc45)c(CCCC#N)cc3c3c2NC(=O)C32CCCNC2)C1 (single isomer, unassigned) [Example 23b, 4-(4′-(3-(dimethylamino)azetidin-1-yl)-6′-fluoro-7′-(3-hydroxynaphthalen-1-yl)-2′-oxo-2′,3′-dihydrospiro[piperidine-3,1′-pyrrolo[2,3-c]quinolin]-8′-yl)butanenitrile]
1 to 5	CN(C)C1CN(c2nc3c(F)c(-c4cc(O)cc5ccccc45)c(CC#N)cc3c3c2NC(=O)C32CCCNC2)C1 (single isomer, unassigned) [Example 24a, 2-(4′-(3-(dimethylamino)azetidin-1-yl)-6′-fluoro-7′-(3-hydroxynaphthalen-1-yl)-2′-oxo-2′,3′-dihydrospiro[piperidine-3,1′-pyrrolo[2,3-c]quinolin]-8′-yl)acetonitrile]
1 to 5	CN(C)C1CN(c2nc3c(F)c(-c4cc(O)cc5ccccc45)c(CCC#N)cc3c3c2NC(=O)C32CCCNC2)C1 (single isomer, unassigned) [Example 25b, 3-(4′-(3-(dimethylamino)azetidin-1-yl)-6′-fluoro-7′-(3-hydroxynaphthalen-1-yl)-2′-oxo-2′,3′-dihydrospiro[piperidine-3,1′-pyrrolo[2,3-c]quinolin]-8′-yl)propanenitrile]
1 to 5	CN(C)C1CN(c2nc3c(F)c(-c4cc(O)cc5ccccc45)c(Cc4ccccc4Cl)cc3c3c2NC(=O)C32CCCNC2)C1 (single isomer, unassigned) [Example 26b, 8′-(2-chlorobenzyl)-4′-(3-(dimethylamino)azetidin-1-yl)-6′-fluoro-7′-(3-hydroxynaphthalen-1-yl)spiro[piperidine-3,1′-pyrrolo[2,3-c]quinolin]-2′(3′H)-one]
1 to 5	CN(C)C1CN(c2nc3c(F)c(-c4cc(O)cc5ccccc45)c(Cc4ccccc4C#N)cc3c3c2NC(=O)C32CCCNC2)C1 (single isomer, unassigned) [Example 27b, 2-((4′-(3-(dimethylamino)azetidin-1-yl)-6′-fluoro-7′-(3-hydroxynaphthalen-1-yl)-2′-oxo-2′,3′-dihydrospiro[piperidine-3,1′-pyrrolo[2,3-c]quinolin]-8′-yl)methyl)benzonitrile]
1 to 5	CN(C)C1CN(c2nc3c(F)c(-c4cc(O)cc5ccccc45)c(CCCC#N)cc3c3c2NCC32CCCNC2)C1 (single isomer, unassigned) [Example 28b, 4-(4′-(3-(dimethylamino)azetidin-1-yl)-6′-fluoro-7′-(3-hydroxynaphthalen-1-yl)-2′,3′-dihydrospiro[piperidine-3,1′-pyrrolo[2,3-c]quinolin]-8′-yl)butanenitrile]
1 to 5	CN(C)C1CN(c2nc3c(F)c(-c4cc(O)cc5ccccc45)c(CCCC#N)cc3c3c2NC(=O)C32CCNC2)C1 (single isomer, unassigned) [Example 30b, 4-(4′-(3-(dimethylamino)azetidin-1-yl)-6′-fluoro-7′-(3-hydroxynaphthalen-1-yl)-2′-oxo-2′,3′-dihydrospiro[pyrrolidine-3,1′-pyrrolo[2,3-c]quinolin]-8′-yl)butanenitrile]
5 to 50	CN(C)C1CN(c2nc3c(F)c(-c4cc(O)cc5ccccc45)c(CCCC#N)cc3c3c2NC(=O)C32CNCCO2)C1 (single isomer, unassigned) [Example 31b, 4-(4′-(3-(dimethylamino)azetidin-1-yl)-6′-fluoro-7′-(3-hydroxynaphthalen-1-yl)-2′-oxo-2′,3′-dihydrospiro[morpholine-2,1′-pyrrolo[2,3-c]quinolin]-8′-yl)butanenitrile]
1 to 5	CN1CCC[C@H]1COc1nc2c(F)c(-c3cc(O)cc4ccccc34)c(CCCC#N)cc2c2c1NC(=O)C21CCCNC1 (single isomer, unassigned) [Example 32b]
1 to 5	CN1C(=O)C2(CCCNC2)c2c1c(OC[C@@H]1CCCN1C)nc1c(F)c(-c3cc(O)cc4ccccc34)c(CCCC#N)cc21 (single isomer, unassigned) [Example 33b]
1 to 5	CN1CCC[C@H]1COc1nc2c(F)c(-c3cc(O)cc4ccccc34)c(CCCC#N)cc2c2c1N(CCO)C(=O)C21CCCNC1 (single isomer, unassigned) [Example 34b]
1 to 5	CN1CCC[C@H]1COc1nc2c(F)c(-c3cc(O)cc4ccccc34)c(CCCC#N)cc2c2c1N(CC#N)C(=O)C21CCCNC1 (single isomer, unassigned) [Example 36a]
1 to 5	CN1CCC[C@H]1COc1nc2c(F)c(-c3cc(O)cc4ccccc34)c(CCCC#N)cc2c2c1N(CC(N)=O)C(=O)C21CCCNC1 (single isomer, unassigned) [Example 37b]
5 to 50	CN(C)C1CN(c2nc3c(F)c(-c4cc(O)cc5ccccc45)c(Cl)cc3c3c2NC(=O)C32CC(N)C2)C1 (centres unmarked) [Example 22, 3-amino-8′-chloro-4′-(3-(dimethylamino)azetidin-1-yl)-6′-fluoro-7′-(3-hydroxynaphthalen-1-yl)spiro[cyclobutane-1,1′-pyrrolo[2,3-c]quinolin]-2′(3′H)-one]
1 to 5	CN(C)C1CN(c2nc3c(F)c(-c4cc(O)cc5ccccc45)c(CCC#N)cc3c3c2NC(=O)C32CNC2)C1 [Example 29, 3-(4′-(3-(dimethylamino)azetidin-1-yl)-6′-fluoro-7′-(3-hydroxynaphthalen-1-yl)-2′-oxo-2′,3′-dihydrospiro[azetidine-3,1′-pyrrolo[2,3-c]quinolin]-8′-yl)propanenitrile]
